Assay results as given in patent US11939314B2, “Quinolin-2-one derivatives” (MERCK PATENT GMBH, priority 2016, dated 2024).

Columns and labels:
[1] = target: T1, c-Kit(V654A) (Homo sapiens, UniProt P10721, V654A); assay: c-Kit(V654A) assay; assay type: biochemical; conditions: recombinant human c-Kit aa 544-end, 200 μM ATP, 1.4E-06 means 1.4×10^−6, read-out: Inhibition (IC50) of c-KIT (V654A)
T1 construct: amino acids 544-end containing the V654A mutation; GST (N)
Method in brief: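 Radiometric filter-binding read-out: substrate 33P incorporation counted by scintillation after P30 filtermat washes in 75 mM phosphoric acid and methanol. Enzyme: N-GST recombinant human c-Kit aa 544-end carrying V654A.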

[2] = target: T2, PDGFRalpha(V561D) (Homo sapiens, UniProt P16234, V561D); assay: PDGFRalpha(V561D) assay; assay type: biochemical; conditions: recombinant human PDGFRalpha aa 550-end, 200 μM ATP, 1.4E-06 means 1.4×10^−6, read-out: Inhibition (IC50) of PDGFRα (V561D)
T2 construct: recombinant human PDGFRalpha, amino acids 550end containing the V561 D mutation; 6His (N)
T2 sequence (P16234 550-1089 V561D): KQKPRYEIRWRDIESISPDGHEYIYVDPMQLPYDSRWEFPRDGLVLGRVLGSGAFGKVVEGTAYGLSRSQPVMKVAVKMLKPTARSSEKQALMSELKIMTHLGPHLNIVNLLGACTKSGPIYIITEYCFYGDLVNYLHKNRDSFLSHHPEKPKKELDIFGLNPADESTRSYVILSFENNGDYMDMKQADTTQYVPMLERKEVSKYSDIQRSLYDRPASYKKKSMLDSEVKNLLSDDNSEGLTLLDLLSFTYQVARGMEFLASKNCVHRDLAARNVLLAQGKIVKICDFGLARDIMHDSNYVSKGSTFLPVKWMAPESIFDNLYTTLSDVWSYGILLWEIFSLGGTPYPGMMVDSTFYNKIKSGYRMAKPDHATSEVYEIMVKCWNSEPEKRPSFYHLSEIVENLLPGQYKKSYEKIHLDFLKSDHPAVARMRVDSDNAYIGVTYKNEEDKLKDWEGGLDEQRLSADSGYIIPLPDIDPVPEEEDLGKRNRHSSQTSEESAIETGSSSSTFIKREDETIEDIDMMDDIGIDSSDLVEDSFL
Procedure: PDGFRalpha(V561D) (N-terminal 6His-tagged, recombinant human PDGFRalpha, amino acids 550end containing the V561 D mutation) is incubated with 8 mM MOPS pH 7.0, 0.2 mM EDTA, 250 μM GGMEDIYEFMGGKKK, 10 mM MgAcetate and [gamma-33P-ATP] (specific activity approx. 500 cpm/pmol, concentration 200 μM). The reaction is initiated by the addition of the MgATP mix. After incubation for 40 minutes at room temperature, the reaction is stopped by the addition of 3% phosphoric acid solution. 10 μL of the reaction is then spotted onto a P30 filtermat and washed three times for 5 minutes in 75 mM phosphoric acid and once in methanol prior to drying and scintillation counting.

T1 sequence (P10721 544-976 V654A): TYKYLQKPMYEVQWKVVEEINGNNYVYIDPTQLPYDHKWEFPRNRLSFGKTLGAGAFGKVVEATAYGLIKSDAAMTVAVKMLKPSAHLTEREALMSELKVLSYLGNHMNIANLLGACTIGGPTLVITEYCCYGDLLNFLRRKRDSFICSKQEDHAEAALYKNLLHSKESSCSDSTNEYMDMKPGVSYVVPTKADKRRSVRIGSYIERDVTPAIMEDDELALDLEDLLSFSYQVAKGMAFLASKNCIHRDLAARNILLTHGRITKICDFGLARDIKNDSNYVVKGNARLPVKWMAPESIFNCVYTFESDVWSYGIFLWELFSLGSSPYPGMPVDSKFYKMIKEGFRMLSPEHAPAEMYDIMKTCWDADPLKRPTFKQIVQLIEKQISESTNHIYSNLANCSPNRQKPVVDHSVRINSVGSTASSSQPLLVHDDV

SMILES	IC50 [1] [nM]	IC50 [2] [nM]
COCC1CCN(C(=O)c2ccc(-n3cc(-c4cc5cc(F)c(F)cc5[nH]c4=O)nn3)cc2)C1 (stereo not shown) [A109, 6,7-difluoro-3-{1-[4-(3-methoxymethyl-pyrrolidine-1-carbonyl)-phenyl]-1H-[1,2,3]triazol-4-yl}-1H-quinolin-2-one]	12	3.4
Cc1ccc2[nH]c(=O)c(-c3cn(-c4ccc(C(=O)N5CCN(C)CC5)cc4)nn3)cc2c1 [A168, 6-methyl-3-{1-[4-(4-methyl-piperazine-1-carbonyl)-phenyl]-1H-[1,2,3]triazol-4-yl}-1H-quinolin-2-one]	37	100
CC(C)(c1ccc(-n2cc(-c3cc4ccccc4[nH]c3=O)nn2)cc1)S(C)(=O)=O [A81, 3-{1-[4-(1-methanesulfonyl-1-methyl-ethyl)-phenyl]-1H-[1,2,3]triazol-4-yl}-1H-quinolin-2-one]	17	6
CCN(CC)CCNC(=O)c1ccc(-n2cc(-c3cc4cc(F)ccc4[nH]c3=O)nn2)cc1 [A196, N-(2-diethylamino-ethyl)-4-[4-(6-fluoro-2-oxo-1,2-dihydro-quinolin-3-yl)-[1,2,3]triazol-1-yl]-benzamide]	44	110
O=C(c1ccc(-n2cc(-c3cc4c(F)cccc4[nH]c3=O)nn2)cc1)N1CCOCC1 [A48, 5-fluoro-3-{1-[4-(morpholine-4-carbonyl)-phenyl]-1H-[1,2,3]triazol-4-yl}-1H-quinolin-2-one]	17	19
COCCCN1CCN(C(=O)c2ccc(-n3cc(-c4cc5c(F)cccc5[nH]c4=O)nn3)cc2)CC1 [A87, 5-fluoro-3-(1-{4-[4-(3-methoxy-propyl)-piperazine-1-carbonyl]-phenyl}-1H-[1,2,3]triazol-4-yl)-1H-quinolin-2-one]	25	12
O=c1[nH]c2ncccc2cc1-c1cnn(-c2ccccc2)c1 [A43, 3-(1-phenyl-1H-pyrazol-4-yl)-1H-[1,8]naphthyridin-2-one]	140	170
O=C(Cn1ccc2cc(-n3cc(-c4cc5cc(F)c(F)cc5[nH]c4=O)nn3)ccc21)N1CCNCC1 [A139, 6,7-difluoro-3-{1-[1-(2-oxo-2-piperazin-1-yl-ethyl)-1H-indol-5-yl]-1H-[1,2,3]triazol-4-yl}-1H-quinolin-2-one]	12	3800
O=C(c1ccc(-n2cc(-c3cc4ccc(Cl)cc4[nH]c3=O)nn2)cc1)N1CCOCC1 [A82, 7-chloro-3-{1-[4-(morpholine-4-carbonyl)-phenyl]-1H-[1,2,3]triazol-4-yl}-1H-quinolin-2-one]	14	3
CN(C)C1CCN(C(=O)c2ccc(-n3cc(-c4cc5ccccc5[nH]c4=O)nn3)cc2)CC1 [A61, 3-{1-[4-(4-dimethylamino-piperidine-1-carbonyl)-phenyl]-1H-[1,2,3]triazol-4-yl}-1H-quinolin-2-one]	29	11
CN1CCN(C(=O)c2ccc(-n3cc(-c4cc5ccc(F)cc5[nH]c4=O)nn3)cc2)CC1 [A118, 7-fluoro-3-{1-[4-(4-methyl-piperazine-1-carbonyl)-phenyl]-1H-[1,2,3]triazol-4-yl}-1H-quinolin-2-one]	16	5
COCCOC[C@@H]1CCN(C(=O)c2ccc(-n3cc(-c4cc5cc(F)ccc5[nH]c4=O)nn3)cc2)C1 [A210, 6-fluoro-3-(1-{4-[(R)-3-(2-methoxy-ethoxymethyl)-pyrrolidine-1-carbonyl]-phenyl}-1H-[1,2,3]triazol-4-yl)-1H-quinolin-2-one]	46	300
O=C(c1ccc(-n2cc(-c3cc4cc(F)c(F)cc4[nH]c3=O)nn2)cc1)N1CCNCC1 [A128, 6,7-difluoro-3-{1-[4-(piperazine-1-carbonyl)-phenyl]-1H-[1,2,3]triazol-4-yl}-1H-quinolin-2-one]	41	9.7

More lines, now with the values ahead:

IC50 [1] [nM]	IC50 [2] [nM]	SMILES
64	59	COC[C@H]1CC[C@H](COC)N1C(=O)c1ccc(-n2cc(-c3cc4cc(F)ccc4[nH]c3=O)nn2)cc1 [A218, 3-{1-[4-((2R,5R)-2,5-bis-methoxymethyl-pyrrolidine-1-carbonyl)-phenyl]-1H-[1,2,3]triazol-4-yl}-6-fluoro-1H-quinolin-2-one]
41	21	CO[C@@H]1CCN(C(=O)c2ccc(-n3cc(-c4cc5cc(F)ccc5[nH]c4=O)cn3)cc2)C1 [A298, 6-fluoro-3-{1-[4-((R)-3-methoxy-pyrrolidine-1-carbonyl)-phenyl]-1H-pyrazol-4-yl}-1H-quinolin-2-one]
40	97	CN(C)[C@@H]1CCCN(C(=O)c2ccc(-n3cc(-c4cc5cc(F)c(F)cc5[nH]c4=O)nn3)cc2)C1 [A328, 3-{1-[4-((R)-3-dimethylamino-piperidine-1-carbonyl)-phenyl]-1H-[1,2,3]triazol-4-yl}-6,7-difluoro-1H-quinolin-2-one]
980	500	COC[C@H]1CC[C@H](COC)N1C(=O)c1ccc(-n2cc(-c3cc4cc(F)c(F)cc4[nH]c3=O)nn2)cc1 [A220, 3-{1-[4-((2R,5R)-2,5-bis-methoxymethyl-pyrrolidine-1-carbonyl)-phenyl]-1H-[1,2,3]triazol-4-yl}-6,7-difluoro-1H-quinolin-2-one]
13	34	CN1CC[C@@H](Oc2ccc(-n3cc(-c4cc5cc(Cl)ccc5[nH]c4=O)nn3)cc2)C1 [A369, 6-chloro-3-{1-[4-((R)-1-methyl-pyrrolidin-3-yloxy)-phenyl]-1H-[1,2,3]triazol-4-yl}-1H-quinolin-2-one]
190	85	COCCN(C)C(=O)c1ccc(-n2cc(-c3cc4cc(F)ccc4[nH]c3=O)nn2)cc1 [A211, 4-[4-(6-fluoro-2-oxo-1,2-dihydro-quinolin-3-yl)-[1,2,3]triazol-1-yl]-N-(2-methoxy-ethyl)-N-methyl-benzamide]
170	680	CN(C)C[C@H]1CCN(C(=O)c2ccc(-n3cc(-c4cc5cc(F)c(F)cc5[nH]c4=O)nn3)cc2)C1 [A335, 3-{1-[4-((R)-3-dimethylaminomethyl-pyrrolidine-1-carbonyl)-phenyl]-1H-[1,2,3]triazol-4-yl}-6,7-difluoro-1H-quinolin-2-one]
16	0.67	O=C(c1ccc(-n2cc(-c3cc4cc(Cl)ccc4[nH]c3=O)nn2)cc1)N1CCC(F)(F)C1 [A268, 6-chloro-3-{1-[4-(3,3-difluoro-pyrrolidine-1-carbonyl)-phenyl]-1H-[1,2,3]triazol-4-yl}-1H-quinolin-2-one]
66	240	CO[C@H]1CCN(C(=O)c2ccc(-n3cc(-c4cc5cc(F)ccc5[nH]c4=O)cn3)cc2)C1 [A297, 6-fluoro-3-{1-[4-((S)-3-methoxy-pyrrolidine-1-carbonyl)-phenyl]-1H-pyrazol-4-yl}-1H-quinolin-2-one]
19	70	CN1CC[C@@H](Oc2ccc(-n3cc(-c4cc5cc(F)ccc5[nH]c4=O)nn3)cc2)C1 [A367, 6-fluoro-3-{1-[4-((R)-1-methyl-pyrrolidin-3-yloxy)-phenyl]-1H-[1,2,3]triazol-4-yl}-1H-quinolin-2-one]
57	24	CN(C)C1CCN(C(=O)c2ccc(-n3cc(-c4cc5cc(Cl)ccc5[nH]c4=O)nn3)cc2)C1 (stereo not shown) [A254, 6-chloro-3-{1-[4-(3-dimethylamino-pyrrolidine-1-carbonyl)-phenyl]-1H-[1,2,3]triazol-4-yl}-1H-quinolin-2-one]
27	36	CN(C)C[C@@H]1CCCN1C(=O)c1ccc(-n2cc(-c3cc4cc(F)ccc4[nH]c3=O)nn2)cc1 [A319, 3-{1-[4-((S)-2-dimethylaminomethyl-pyrrolidine-1-carbonyl)-phenyl]-1H-[1,2,3]triazol-4-yl}-6-fluoro-1H-quinolin-2-one]
330	1200	CCN(CC)CC1CCN(C(=O)c2ccc(-n3cc(-c4cc5cc(F)c(F)cc5[nH]c4=O)nn3)cc2)C1 (stereo not shown) [A239, 3-{1-[4-(3-diethylaminomethyl-pyrrolidine-1-carbonyl)-phenyl]-1H-[1,2,3]triazol-4-yl}-6,7-difluoro-1H-quinolin-2-one]
48	0.89	CO[C@H]1CN(C(=O)c2ccc(-n3cc(-c4cc5cc(Cl)ccc5[nH]c4=O)nn3)cc2)C[C@@H]1OC [A272, 6-chloro-3-{1-[4-((3S,4S)-3,4-dimethoxy-pyrrolidine-1-carbonyl)-phenyl]-1H-[1,2,3]triazol-4-yl}-1H-quinolin-2-one]
42	140	O=C(c1ccc(-n2cc(-c3cc4cc(F)ccc4[nH]c3=O)nn2)cc1)N1CC2(COC2)C1 [A235, 6-fluoro-3-{1-[4-(2-oxa-6-aza-spiro[3.3]heptane-6-carbonyl)-phenyl]-1H-[1,2,3]triazol-4-yl}-1H-quinolin-2-one]
37	6	CO[C@H]1CN(C(=O)c2ccc(-n3cc(-c4cc5cc(F)ccc5[nH]c4=O)cn3)cc2)C[C@@H]1OC [A303, 3-{1-[4-((3S,4S)-3,4-dimethoxy-pyrrolidine-1-carbonyl)-phenyl]-1H-pyrazol-4-yl}-6-fluoro-1H-quinolin-2-one]
